Measurements published in patent US20220387608A1, “ADRENOMEDULLIN-ANALOGUES FOR LONG-TERM STABILIZATION AND THEIR USE” (Bayer Aktiengesellschaft, priority 2019, published 2022).
Positions of bridges follow the written chain, without caps; N, C: chain ends. Non-standard residues stand in square brackets, D forms with d. Residues, ends and D or L forms follow the SMILES beside them. *: point of attachment. X1 = CN(C)c1ccc2c(c1)Oc1cc(N(C)C)ccc1C21OC(=O)c2ccc(C(=O)*)cc21; C18 diacid = O=C(O)CCCCCCCCCCCCCCCCC(=O)*; PEG3 = NCCOCCOCCOCCC(=O)O; Dap = NC[C@H](N)C(=O)O

Experiment: Stability determination of TAMRA-labelled adrenomedullin analogues in human blood plasma
Type: in vitro ADME
Conditions: 37° C., 10^-5 M, slow-decay phase half-life, read-out: t1/2 (slow) (converted)
Protocol: The stability of the peptides was investigated using fluorescently labeled analogues, which were prepared as described above.
The TAMRA-labeled analogues were dissolved in 1.5 m1 of human blood plasma to a concentration of 10^−5 M and incubated at 37° C. under constant shaking. Samples of 150 μl were taken at different time points and precipitated with 300 μl Ethanol/ACN (1:1) for at least 1 h at −20° C. After centrifugation for 30 s at 12000 rpm, the supernatant was collected and incubated at −20° C. for at least 3 h. Subsequently, it was transferred into Costar® Spin-X® Centrifuge Tube Filters (0.22 μm) and centrifuged for 1 h at 12000 rpm. The samples were analyzed by RP-HPLC using a VariTide RPC column (Agilent Technologies, 250 mm×4.6 mm, […], 200 Å) with linear gradients of 0.1% TFA in water and 0.08% TFA in ACN; fluorescence measurement (λex=525 nm; λem=572 nm) was used for the detection of the analogues and their N-terminal fragments. The percentage of intact peptide was determined by peak integration. The values of peaks containing additional cleavage fragments were corrected by comparing intensities of cleavage fragments and intact peptide using MALDI-MS analysis (UltraflexIII, Bruker). The stability of the peptides was calculated with GraphPad Prism 5 (GraphPad Software) using a two phase exponential decay function for the determination of slow-decay phase half-lives (ln(2)/Kslow; Kslow: rate constant of slow part of exponential decay).

| SMILES | half-life |
| --- | --- |
| CC[C@H](C)[C@H](NC(=O)[C@H](CCC(N)=O)NC(=O)[C@H](Cc1c[nH]cn1)NC(=O)[C@H](C)NC(=O)[C@H](CC(C)C)NC(=O)[C@H](CCCCN)NC(=O)[C@H](CCC(N)=O)NC(=O)[C@@H](NC(=O)[C@@H](NC(=O)[C@@H]1CSSC[C@H](NC(=O)CNC(=O)[C@H](CCCCNC(=O)CCCCCCCCCCCCCCCCC(=O)O)NC(=O)c2ccc3c(c2)C2(OC3=O)c3ccc(N(C)C)cc3Oc3cc(N(C)C)ccc32)C(=O)N[C@@H](CCCNC(=N)N)C(=O)N[C@@H](Cc2ccccc2)C(=O)NCC(=O)N[C@@H]([C@@H](C)O)C(=O)N1)[C@@H](C)O)C(C)C)C(=O)N[C@@H](Cc1ccc(O)cc1)C(=O)N[C@@H](CCC(N)=O)C(=O)N[C@@H](Cc1ccccc1)C(=O)N[C@H](C(=O)NCCOCCOCCOCCC(=O)N[C@@H](CC(=O)O)C(=O)N[C@@H](CC(N)=O)C(=O)N[C@H](C(=O)N[C@@H](C)C(=O)N1CCC[C@H]1C(=O)N[C@H]1CCCCNC(=O)C[C@@H](C(=O)N2CCC[C@H]2C(=O)N[C@@H](CCC(N)=O)C(=O)NCC(=O)N[C@@H](Cc2ccc(O)cc2)C(N)=O)NC(=O)[C@H]([C@@H](C)CC)NC(=O)[C@H](CCCCN)NC(=O)[C@H](CO)NC1=O)C(C)C)[C@@H](C)O [TAM-14] (X1-K(C18 diacid)GCRFGTCTVQKLAHQIYQFT[PEG3]DNVAPKSKIDPQGY-NH2; disulfide 3-8; lactam 28-32) | > 144 h |
| CC[C@H](C)[C@H](NC(=O)[C@H](CCC(N)=O)NC(=O)[C@H](Cc1c[nH]cn1)NC(=O)[C@H](C)NC(=O)[C@H](CC(C)C)NC(=O)[C@H](CCCCN)NC(=O)[C@H](CCC(N)=O)NC(=O)[C@@H](NC(=O)[C@@H](NC(=O)[C@@H]1CCC(=O)NC[C@H](NC(=O)CNC(=O)[C@H](CCCCNC(=O)CCCCCCCCCCCCCCCCC(=O)O)NC(=O)c2ccc3c(c2)C2(OC3=O)c3ccc(N(C)C)cc3Oc3cc(N(C)C)ccc32)C(=O)N[C@@H](CCCNC(=N)N)C(=O)N[C@@H](Cc2ccccc2)C(=O)NCC(=O)N[C@@H]([C@@H](C)O)C(=O)N1)[C@@H](C)O)C(C)C)C(=O)N[C@@H](Cc1ccc(O)cc1)C(=O)N[C@@H](CCC(N)=O)C(=O)N[C@@H](Cc1ccccc1)C(=O)N[C@H](C(=O)N[C@@H](CC(=O)O)C(=O)N[C@@H](CCCCN)C(=O)N[C@@H](CC(=O)O)C(=O)N[C@@H](CCCCN)C(=O)N[C@@H](CC(=O)O)C(=O)N[C@@H](CC(N)=O)C(=O)N[C@H](C(=O)N[C@@H](C)C(=O)N1CCC[C@H]1C(=O)N[C@@H](CCCNC(=N)N)C(=O)N[C@@H](CO)C(=O)N[C@@H](CCCCN)C(=O)N[C@H](C(=O)N[C@@H](CO)C(=O)N1CCC[C@H]1C(=O)N[C@@H](CCC(N)=O)C(=O)NCC(=O)N[C@@H](Cc1ccc(O)cc1)C(N)=O)[C@@H](C)CC)C(C)C)[C@@H](C)O [TAM-15] (X1-K(C18 diacid)G[Dap]RFGTETVQKLAHQIYQFTDKDKDNVAPRSKISPQGY-NH2; lactam 3-8) | > 144 h |
| CC[C@H](C)[C@H](NC(=O)[C@H](CCC(N)=O)NC(=O)[C@H](Cc1c[nH]cn1)NC(=O)[C@H](C)NC(=O)[C@H](CC(C)C)NC(=O)[C@H](CCCCN)NC(=O)[C@H](CCC(N)=O)NC(=O)[C@@H](NC(=O)[C@@H](NC(=O)[C@@H]1CCC(=O)NC[C@H](NC(=O)CNC(=O)[C@H](CCCCNC(=O)CCCCCCCCCCCCCCCCC(=O)O)NC(=O)c2ccc3c(c2)C2(OC3=O)c3ccc(N(C)C)cc3Oc3cc(N(C)C)ccc32)C(=O)N[C@@H](CCCNC(=N)N)C(=O)N[C@@H](Cc2ccccc2)C(=O)NCC(=O)N[C@@H]([C@@H](C)O)C(=O)N1)[C@@H](C)O)C(C)C)C(=O)N[C@@H](Cc1ccc(O)cc1)C(=O)N[C@@H](CCC(N)=O)C(=O)N[C@@H](Cc1ccccc1)C(=O)N[C@H](C(=O)N[C@@H](CC(=O)O)C(=O)N[C@@H](CCCCN)C(=O)N[C@@H](CC(=O)O)C(=O)N[C@@H](CCCCN)C(=O)N[C@@H](CC(=O)O)C(=O)N[C@@H](CC(N)=O)C(=O)N[C@H](C(=O)N[C@@H](C)C(=O)N1CCC[C@H]1C(=O)N[C@H]1CCCCNC(=O)C[C@@H](C(=O)N2CCC[C@H]2C(=O)N[C@@H](CCC(N)=O)C(=O)NCC(=O)N[C@@H](Cc2ccc(O)cc2)C(N)=O)NC(=O)[C@H]([C@@H](C)CC)NC(=O)[C@H](CCCCN)NC(=O)[C@H](CO)NC1=O)C(C)C)[C@@H](C)O [TAM-16] (X1-K(C18 diacid)G[Dap]RFGTETVQKLAHQIYQFTDKDKDNVAPKSKIDPQGY-NH2; lactam 3-8, 31-35) | > 144 h |

The next lines start with the values.

| half-life | SMILES |
| --- | --- |
| > 144 h | CC[C@H](C)[C@H](NC(=O)[C@H](CCC(N)=O)NC(=O)[C@H](Cc1c[nH]cn1)NC(=O)[C@H](C)NC(=O)[C@H](CC(C)C)NC(=O)[C@H](CCCCN)NC(=O)[C@H](CCC(N)=O)NC(=O)[C@@H](NC(=O)[C@@H](NC(=O)[C@@H]1CCC(=O)NC[C@H](NC(=O)CNC(=O)[C@H](CCCCNC(=O)CCCCCCCCCCCCCCCCC(=O)O)NC(=O)c2ccc3c(c2)C2(OC3=O)c3ccc(N(C)C)cc3Oc3cc(N(C)C)ccc32)C(=O)N[C@@H](CCCNC(=N)N)C(=O)N[C@@H](Cc2ccccc2)C(=O)NCC(=O)N[C@@H]([C@@H](C)O)C(=O)N1)[C@@H](C)O)C(C)C)C(=O)N[C@@H](Cc1ccc(O)cc1)C(=O)N[C@@H](CCC(N)=O)C(=O)N[C@@H](Cc1ccccc1)C(=O)N[C@H](C(=O)NCCOCCOCCOCCC(=O)N[C@@H](CC(=O)O)C(=O)N[C@@H](CC(N)=O)C(=O)N[C@H](C(=O)N[C@@H](C)C(=O)N1CCC[C@H]1C(=O)N[C@H]1CCCCNC(=O)C[C@@H](C(=O)N2CCC[C@H]2C(=O)N[C@@H](CCC(N)=O)C(=O)NCC(=O)N[C@@H](Cc2ccc(O)cc2)C(N)=O)NC(=O)[C@H]([C@@H](C)CC)NC(=O)[C@H](CCCCN)NC(=O)[C@H](CO)NC1=O)C(C)C)[C@@H](C)O [TAM-17] (X1-K(C18 diacid)G[Dap]RFGTETVQKLAHQIYQFT[PEG3]DNVAPKSKIDPQGY-NH2; lactam 3-8, 28-32) |
| 12 h | CC[C@H](C)[C@H](NC(=O)[C@H](CCC(N)=O)NC(=O)[C@H](Cc1c[nH]cn1)NC(=O)[C@H](C)NC(=O)[C@H](CC(C)C)NC(=O)[C@H](CCCCN)NC(=O)[C@H](CCC(N)=O)NC(=O)[C@@H](NC(=O)[C@@H](NC(=O)[C@@H]1CSSC[C@H](NC(=O)CNC(=O)CNC(=O)c2ccc3c(c2)C2(OC3=O)c3ccc(N(C)C)cc3Oc3cc(N(C)C)ccc32)C(=O)N[C@@H](CCCNC(=N)N)C(=O)N[C@@H](Cc2ccccc2)C(=O)NCC(=O)N[C@@H]([C@@H](C)O)C(=O)N1)[C@@H](C)O)C(C)C)C(=O)N[C@@H](Cc1ccc(O)cc1)C(=O)N[C@@H](CCC(N)=O)C(=O)N[C@@H](Cc1ccccc1)C(=O)N[C@H](C(=O)N[C@@H](CC(=O)O)C(=O)N[C@@H](CCCCN)C(=O)N[C@@H](CC(=O)O)C(=O)N[C@@H](CCCCN)C(=O)N[C@@H](CC(=O)O)C(=O)N[C@@H](CC(N)=O)C(=O)N[C@H](C(=O)N[C@@H](C)C(=O)N1CCC[C@H]1C(=O)N[C@@H](CCCNC(=N)N)C(=O)N[C@@H](CO)C(=O)N[C@@H](CCCCN)C(=O)N[C@H](C(=O)N[C@@H](CO)C(=O)N1CCC[C@H]1C(=O)N[C@@H](CCC(N)=O)C(=O)NCC(=O)N[C@@H](Cc1ccc(O)cc1)C(N)=O)[C@@H](C)CC)C(C)C)[C@@H](C)O [TAM-control, reference compound] |
